PubChem BioAssay AID1259407 (Chemical Carcinogenesis Research Information System (CCRIS), 2018)
Active and inactive are the calls of the source. How the calls were made is not given here.

Test system: CCRIS mutagenicity, Ames/micronucleus/aberration tests
Assay: CCRIS mutagenicity studies
Settings: Test System: AMES SALMONELLA TYPHIMURIUM
[1] = Strain/Indicator: TA98, Metabolic Activation: NONE, Method: PREINCUBATION
[2] = Strain/Indicator: TA100, Metabolic Activation: NONE, Method: PREINCUBATION
[3] = Strain/Indicator: TA1535, Metabolic Activation: NONE, Method: PREINCUBATION
[4] = Strain/Indicator: TA1537, Metabolic Activation: NONE, Method: PREINCUBATION

For CC=C(Cl)Cl, the mutagenic call (Strain/Indicator: RSJ100, Metabolic Activation: NONE, Method: PREINCUBATION) was “active; positive”, the mutagenic call (Strain/Indicator: RSJ100, Metabolic Activation: NONE, Method: VAPOR PHASE) was “active; positive” and the mutagenic call [1] was “inactive; negative”. The mutagenic call (Strain/Indicator: TA98, Metabolic Activation: RAT, LIVER, S-9, AROCLOR, Method: PREINCUBATION) was “inactive; negative”, the mutagenic call [2] was “inactive; negative” and the mutagenic call (Strain/Indicator: TA100, Metabolic Activation: RAT, LIVER, S-9, AROCLOR, Method: PREINCUBATION) was “inactive; negative”. The mutagenic call (Strain/Indicator: TA104, Metabolic Activation: NONE, Method: PREINCUBATION) was “inactive; negative”, the mutagenic call (Strain/Indicator: TA104, Metabolic Activation: RAT, LIVER, S-9, AROCLOR, Method: PREINCUBATION) was “inactive; negative” and the mutagenic call [3] was “inactive; negative”. The mutagenic call (Strain/Indicator: TA1535, Metabolic Activation: RAT, LIVER, S-9, AROCLOR, Method: PREINCUBATION) was “inactive; negative”, the mutagenic call (Strain/Indicator: TPT100, Metabolic Activation: NONE, Method: PREINCUBATION) was “inactive; negative” and the mutagenic call (Strain/Indicator: TPT100, Metabolic Activation: NONE, Method: VAPOR PHASE) was “active; positive”.

CC(C)C(N)C(=O)O (stereo unspecified) was tested, and the mutagenic call (Strain/Indicator: TA98, Metabolic Activation: RAT LIVER S-9, CHLOROPHENE, Method: STANDARD PLATE (COMPOUND HEATED AT 250 DEGREES CELSIUS FOR 20 MIN)) was “inactive; negative”.

With c1ccc2c(c1)Nc1ccccc1S2 the mutagenic call (Strain/Indicator: TA98, Metabolic Activation: HAMSTER, LIVER, S-9, AROCLOR 1254 (10%), Method: PREINCUBATION) was “inactive; negative”, the mutagenic call [1] was “inactive; negative” and the mutagenic call (Strain/Indicator: TA98, Metabolic Activation: NONE, Method: SPOT TEST) was “inactive; negative”. For the same compound, the mutagenic call (Strain/Indicator: TA98, Metabolic Activation: RAT, LIVER, S-9, AROCLOR 1254 (10%), Method: PREINCUBATION) was “inactive; negative”, the mutagenic call (Strain/Indicator: TA100, Metabolic Activation: HAMSTER, LIVER, S-9, AROCLOR 1254 (10%), Method: PREINCUBATION) was “inactive; negative” and the mutagenic call [2] was “inactive; negative”. For the same compound, the mutagenic call (Strain/Indicator: TA100, Metabolic Activation: RAT, LIVER, S-9, AROCLOR 1254 (10%), Method: PREINCUBATION) was “inactive; negative”, the mutagenic call (Strain/Indicator: TA1535, Metabolic Activation: HAMSTER, LIVER, S-9, AROCLOR 1254 (10%), Method: PREINCUBATION) was “inactive; negative” and the mutagenic call [3] was “inactive; negative”. The mutagenic call (Strain/Indicator: TA1535, Metabolic Activation: RAT, LIVER, S-9, AROCLOR 1254 (10%), Method: PREINCUBATION) was “inactive; negative”, the mutagenic call (Strain/Indicator: TA1537, Metabolic Activation: HAMSTER, LIVER, S-9, AROCLOR 1254 (10%), Method: PREINCUBATION) was “inactive; negative” and the mutagenic call [4] was “inactive; negative”. The mutagenic call (Strain/Indicator: TA1537, Metabolic Activation: RAT, LIVER, S-9, AROCLOR 1254 (10%), Method: PREINCUBATION) was “inactive; negative”.

In the case of Nc1cccc2c(=O)[nH][nH]c(=O)c12, the mutagenic call (Strain/Indicator: TA97, Metabolic Activation: HAMSTER, LIVER, S-9, AROCLOR 1254 (10 OR 30%), Method: PREINCUBATION) is reported as “inactive; negative”, the mutagenic call (Strain/Indicator: TA97, Metabolic Activation: NONE, Method: PREINCUBATION) is reported as “inactive; negative” and the mutagenic call (Strain/Indicator: TA97, Metabolic Activation: RAT, LIVER, S-9, AROCLOR 1254 (10 OR 30%), Method: PREINCUBATION) is reported as “inactive; negative”. For the same compound, the mutagenic call (Strain/Indicator: TA98, Metabolic Activation: HAMSTER, LIVER, S-9, AROCLOR 1254 (10 OR 30%), Method: PREINCUBATION) was “inactive; negative”, the mutagenic call [1] was “inactive; negative” and the mutagenic call (Strain/Indicator: TA98, Metabolic Activation: RAT, LIVER, S-9, AROCLOR 1254 (10 OR 30%), Method: PREINCUBATION) was “inactive; negative”. The mutagenic call (Strain/Indicator: TA100, Metabolic Activation: HAMSTER, LIVER, S-9, AROCLOR 1254 (10 OR 30%), Method: PREINCUBATION) was “inactive; negative”, the mutagenic call [2] was “inactive; negative” and the mutagenic call (Strain/Indicator: TA100, Metabolic Activation: RAT, LIVER, S-9, AROCLOR 1254 (10 OR 30%), Method: PREINCUBATION) was “inactive; negative”. For the same compound, the mutagenic call (Strain/Indicator: TA1535, Metabolic Activation: HAMSTER, LIVER, S-9, AROCLOR 1254 (10 OR 30%), Method: PREINCUBATION) was “inactive; negative”, the mutagenic call [3] was “inactive; negative” and the mutagenic call (Strain/Indicator: TA1535, Metabolic Activation: RAT, LIVER, S-9, AROCLOR 1254 (10 OR 30%), Method: PREINCUBATION) was “inactive; negative”. For the same compound, the mutagenic call (Strain/Indicator: TA1537, Metabolic Activation: HAMSTER, LIVER, S-9, AROCLOR 1254 (10 OR 30%), Method: PREINCUBATION) was “inactive; negative”, the mutagenic call [4] was “inactive; negative” and the mutagenic call (Strain/Indicator: TA1537, Metabolic Activation: RAT, LIVER, S-9, AROCLOR 1254 (10 OR 30%), Method: PREINCUBATION) was “inactive; negative”.
